This test concerns PTP1B in MCF-7 cell lysate. Nature of the test: Proteomic profiling (SP2E enrichment, LC-MS/MS), MCF-7 lysate. The conditions noted are these: 500 µM SM-PO, vs DMSO. Further details: species or system human. The method, then: Finally, we employed bottom‐up proteomics to validate that the labeled protein corresponds to the intended target PTP1B. For this, first MCF‐7 cell lysate (400 µg) was treated with 500 µM bio‐PO for 4 h. Directly afterwards, we applied a protocol described by the Kielkowski group, termed SP2E, which integrates protein purification with magnetic carboxyl‐coated beads and enrichment using magnetic streptavidin beads (Figure 5c). […] We reasoned that this might be due to the lower abundance of PTP1B in HEK293T compared to MCF‐7 lysate. Therefore, the protocol was repeated by doubling the proteome input to 800 µg. Following this minor adjustment, PTP1B was then enriched in our analysis (>4‐fold) (Figure 5e). […] However, this protein is included in the contamination repository for affinity purification (CRAPome) and appears in about half of such experiments as a contaminant. Given the comparably low PTP1B levels in Ramos lysate, we refrained from attempting pull‐down experiments from this cell line. […]
For proteome labelling using the SP2E workflow, a modified protocol by Becker et al. was followed.^[13] […] Tryptic peptides were eluted from the magnetic beads using a magnetic rack, samples were diluted and analyzed by qToF for purity i.e. absence of detergents and successful trypsin digestion. […]

For `C#CP(=O)(O)Oc1ccc(CCNC(=O)CCCC[C@@H]2SC[C@@H]3NC(=O)N[C@@H]32)cc1` [SM-PO, 4-(2-biotinamidoethyl)phenyl ethynylphosphonic acid monoester], the “other proteins enriched by SM-PO” value is “adipocyte plasma membrane–associated protein (APMAP) was identified among the enriched proteins”. Besides, where the note is “enrichment >2 log2 fold change, p ≤ 0.05”, the “enrichment of PTP1B or other phosphatases by SM-PO” value is “neither PTP1B nor any other phosphatase was significantly enriched”.
